Like-named read-outs stand apart in the source and are kept apart here.
Key:
[1] = test system: Key Broadleaf Weed and Crop Species; assay: Post-emergent Test II herbicidal activity (Table 15); assay type: in vivo; conditions: post-emergence, 336 h, 14 d; for pest or weed control at 35 g/ha: 35 g ai/ha; for pest or weed control at 70 g/ha: 70 g ai/ha; for pest or weed control at 140 g/ha: 140 g ai/ha
Outline: (§1)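 Plants at first-second true leaf stage, grown 7-21 d in greenhouse (~15 h photoperiod, 23-29 °C day), were track-sprayed at 187 L/ha with compound in acetone/DMSO/water/isopropanol/crop oil/Triton X-155 at a high rate plus 1/2× to 1/16× dilutions. Injury scored visually after 14 d versus untreated plants, 0 (none) to 100% (complete kill).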

[2] = test system: Key Grass and Sedge Weeds as well as Grass Crops; assay: Post-emergent Test II herbicidal activity (Table 16); assay type: in vivo; conditions: post-emergence, 336 h, 14 d; for pest or weed control at 35 g/ha: 35 g ai/ha; for pest or weed control at 70 g/ha: 70 g ai/ha; for pest or weed control at 140 g/ha: 140 g ai/ha
Outline: as §1

[3] = Abutilon theophrasti, velvetleaf (Abutilon theophrasti), read-out: Visual Growth Reduction (%) 14 Days After Application, ABUTH
[4] = Brassica napus, oilseed rape, canola (Brassica napus), read-out: Visual Growth Reduction (%) 14 Days After Application, BRSNN
[5] = Chenopodium album, lambsquarters (Chenopodium album), read-out: Visual Growth Reduction (%) 14 Days After Application, CHEAL
[6] = Euphorbia heterophylla, wild poinsettia (Euphorbia heterophylla), read-out: Visual Growth Reduction (%) 14 Days After Application, EPHHL
[7] = Helianthus annuus, sunflower (Helianthus annuus), read-out: Visual Growth Reduction (%) 14 Days After Application, HELAN
[8] = Cyperus esculentus, yellow nutsedge (Cyperus esculentus), read-out: Visual Growth Reduction (%) 14 Days After Application, CYPES
[9] = Echinochloa crus-galli, barnyardgrass (Echinochloa crus-galli), read-out: Visual Growth Reduction (%) 14 Days After Application, ECHCG
[10] = Oryza sativa, rice (Oryza sativa), read-out: Visual Growth Reduction (%) 14 Days After Application, ORYSA
[11] = Setaria faberi, giant foxtail (Setaria faberi), read-out: Visual Growth Reduction (%) 14 Days After Application, SETFA
[12] = Triticum aestivum, wheat, spring (Triticum aestivum), read-out: Visual Growth Reduction (%) 14 Days After Application, TRZAS
[13] = Zea mays, maize, corn (Zea mays), read-out: Visual Growth Reduction (%) 14 Days After Application, ZEAMX

**Q.** With `COC(=O)c1nc(-c2ccc3c(ccn3C)c2)c(F)c(N)c1Cl` [Compound 1.03] as the compound, how does the pest or weed control at 35 g/ha [1, 3] read?
**A.** 0 to 29%

**Q.** And the pest or weed control at 70 g/ha [1, 3]?
**A.** 0 to 29%

**Q.** And the pest or weed control at 140 g/ha [1, 3]?
**A.** 75 to 84%

**Q.** And the pest or weed control at 140 g/ha ([1]; Amaranthus retroflexus, redroot pigweed (Amaranthus retroflexus), read-out: Visual Growth Reduction (%) 14 Days After Application, AMARE)?
**A.** 85 to 94%

**Q.** What about the pest or weed control at 35 g/ha [1, 4] of the same compound?
**A.** 0 to 29%

**Q.** And the pest or weed control at 70 g/ha [1, 4]?
**A.** 0 to 29%

**Q.** And the pest or weed control at 140 g/ha [1, 4]?
**A.** 0 to 29%

**Q.** And the pest or weed control at 35 g/ha [1, 5]?
**A.** 85 to 94%

**Q.** And the pest or weed control at 70 g/ha [1, 5]?
**A.** 85 to 94%

**Q.** And the pest or weed control at 140 g/ha [1, 5]?
**A.** 95 to 100%

**Q.** What about the pest or weed control at 35 g/ha [1, 6] of the same compound?
**A.** 95 to 100%

**Q.** What about the pest or weed control at 70 g/ha [1, 6] of the same compound?
**A.** 95 to 100%

**Q.** And the pest or weed control at 140 g/ha [1, 6]?
**A.** 85 to 94%

**Q.** What about the pest or weed control at 35 g/ha [1, 7] of the same compound?
**A.** 0 to 29%

**Q.** What about the pest or weed control at 70 g/ha [1, 7] of the same compound?
**A.** 0 to 29%

**Q.** What about the pest or weed control at 140 g/ha [1, 7] of the same compound?
**A.** 45 to 59%

**Q.** And the pest or weed control at 35 g/ha [2, 8]?
**A.** 0 to 29%

**Q.** What about the pest or weed control at 70 g/ha [2, 8] of the same compound?
**A.** 0 to 29%

**Q.** What about the pest or weed control at 140 g/ha [2, 8] of the same compound?
**A.** 0 to 29%

**Q.** What about the pest or weed control at 35 g/ha [2, 9] of the same compound?
**A.** 0 to 29%

**Q.** And the pest or weed control at 70 g/ha [2, 9]?
**A.** 0 to 29%

**Q.** What about the pest or weed control at 140 g/ha [2, 9] of the same compound?
**A.** 60 to 74%

**Q.** What about the pest or weed control at 35 g/ha [2, 10] of the same compound?
**A.** 0 to 29%

**Q.** And the pest or weed control at 70 g/ha [2, 10]?
**A.** 0 to 29%

**Q.** What about the pest or weed control at 140 g/ha [2, 10] of the same compound?
**A.** 0 to 29%

**Q.** What about the pest or weed control at 35 g/ha [2, 11] of the same compound?
**A.** 0 to 29%

**Q.** And the pest or weed control at 70 g/ha [2, 11]?
**A.** 0 to 29%

**Q.** What about the pest or weed control at 140 g/ha [2, 11] of the same compound?
**A.** 0 to 29%

**Q.** And the pest or weed control at 35 g/ha [2, 12]?
**A.** 0 to 29%

**Q.** And the pest or weed control at 70 g/ha [2, 12]?
**A.** 0 to 29%

**Q.** What about the pest or weed control at 140 g/ha [2, 12] of the same compound?
**A.** 0 to 29%

**Q.** And the pest or weed control at 35 g/ha [2, 13]?
**A.** 0 to 29%

**Q.** And the pest or weed control at 70 g/ha [2, 13]?
**A.** 0 to 29%

**Q.** And the pest or weed control at 140 g/ha [2, 13]?
**A.** 0 to 29%

**Q.** What about the melting point of the same compound?
**A.** 125 to 127 °C

— patent US20170050957A1, “4-AMINO-6-(HETEROCYCLIC)PICOLINATES AND 6-AMINO-2-(HETEROCYCLIC)PYRIMIDINE-4-CARBOXYLATES AND THEIR USE AS HERBICIDES” (Dow AgroSciences LLC, priority 2013, published 2017)
